Data from paper PMC8857278, “Incomplete tricarboxylic acid cycle and proton gradient in Pandoravirus massiliensis: is it still a virus?” (The ISME Journal, 2021).

Tests used:
[1] = tested on: T1, human IDH; details: 37 °C, 100 µL, kit buffer; NAD+ or NADP+ co-substrate not specified; varied substrate implied to be isocitrate
T1 construct: gene IDH1

[2] = tested on: T2, ORF132; test: isocitrate dehydrogenase activity assay kit, absorbance […] nm, NADH standard curve, Michaelis-Menten fit; assay type: biochemical, Pandoravirus massiliensis; details: 37 °C, 100 µL, kit buffer; NAD+ or NADP+ co-substrate not specified; varied substrate implied to be isocitrate
T2 construct: full-length ORF, 146 residues; N-terminal Strep-tag, codon-optimised synthetic gene in pET22b(+); E. coli BL21(DE3); StrepTrap purified

`O=C(O)C[C@H](C(=O)O)[C@@H](O)C(=O)O` [isocitrate] gave a Km [1] of 585 µM and a Km [2] of 51.8 µM.
